Laboratory results from US20080009506A1, “Imidazole Compound” (priority 2004, published 2008).

Tested on: rhythmic bladder contractions induced by substance P
Test: Inhibitory effect on the rhythmic bladder contractions induced by substance P in anesthetized rats
Assay type: in vivo, Sprague-Dawley female rats
Details: 0.25 mg/kg, intravenous, urethane-anesthetized rats, substance P 0.33 μg/kg/min infusion
Protocol: For the experiments, Sprague-Dawley female rats (9 to 12 weeks old) weighing between 200 to 300 g were used. After urethane anesthetization (subcutaneously administered with a dose of 1.2 g/kg), cannulae were placed in both right and left femoral veins. One intravenous catheter was used for administration of compounds, and the other was for the substance P (0.33 μg/kg/min) infusion. We also cannulated into ureter to pass urine. Polyethylene catheters were inserted into carotid artery for continuous monitoring of arterial blood pressure and heart rate. For continuous infusion, transurethral bladder catheter was inserted into the bladder through the urethra and tied in place by a ligature around the urethral orifice. One end of the catheter was attached to a pressure transducer in order to measure intravesical pressure. The other end of the catheter was used for infusion of saline into the bladder. After stabilization of blood pressure and heart rate and after the bladder was emptied, cystometry was performed by filling the bladder slowly with about 0.6 ml of saline. After about 10 minutes, intravenous infusion of substance P (0.33 μg/kg/min) was started for stabilization of the micturition reflex. Compounds were administered after stable rhythmic bladder contraction was obtained over 15 minutes. […]

## NC(=O)c1ccc(-n2cc(C(F)(F)F)nc2-c2ccccc2)cc1 [Example 1 (Compound 4)]
  100% inhibition time: time during which the frequency of the rhythmic contraction had been completely inhibited: 10.08 min
